Active and inactive are the calls of the source. The calls are words filed in the database; no cut-off is given here.
Legend:
Assay type in all cases: functional, cell-based
[1] = test system: BT-474; experiment: Antiproliferative activity against human BT474 cells after 48 hrs by Alamar blue assay; conditions: BT-474, 48 h
[2] = test system: MCF7; experiment: Antiproliferative activity against human MCF7 cells after 48 hrs by Alamar blue assay; conditions: MCF7, 48 h
[3] = test system: MCF7; experiment: Cytotoxicity against human MCF7 cells assessed as morphological changes after 48 hrs by microscopic analysis

## CC[C@@]1(C)CC(=O)[C@]2(O)[C@@]3(C)[C@@H](OCc4cc(-c5ccccc5)no4)CCC(C)(C)[C@@H]3[C@H](O)[C@H](OC(C)=O)[C@@]2(C)O1
[1]
  IC50: 9.1 µM
[2]
  IC50: 2.6 µM

## C=C[C@@]1(C)CC(=O)[C@]2(O)[C@@]3(C)[C@@H](OCc4cc(-c5cc(OC)c(OC)c(OC)c5)no4)CCC(C)(C)[C@@H]3[C@H](O)[C@H](OC(C)=O)[C@@]2(C)O1
[1]
  IC50: > 100 µM
[2]
  IC50: 55.3 µM

## CC(=O)O[C@H]1[C@@H](O)[C@H]2C(C)(C)CC[C@H](OCc3cc(-c4ccc(C)cc4)no3)[C@]2(C)[C@@]2(O)C(=O)C[C@](C)(C3CC(c4ccc(C)cc4)=NO3)O[C@]12C (stereo partly specified)
[1]
  IC50: > 100 µM
[2]
  IC50: 5.6 µM

## COc1ccc(C2=NOC([C@@]3(C)CC(=O)[C@]4(O)[C@@]5(C)[C@@H](OCc6cc(-c7ccc(OC)cc7)no6)CCC(C)(C)[C@@H]5[C@H](OC(C)=O)[C@H](O)[C@@]4(C)O3)C2)cc1 (stereo partly specified)
[1]
  IC50: > 100 µM
[2]
  IC50: 79.3 µM

## C#CCO[C@H]1CCC(C)(C)[C@@H]2[C@H](O)[C@H](OC(C)=O)[C@@]3(C)O[C@@](C)(CC)CC(=O)[C@]3(O)[C@@]12C
[1]
  IC50: > 100 µM
[2]
  IC50: 10 µM

## C=C[C@@]1(C)CC(=O)[C@]2(O)[C@@]3(C)[C@@H](OCc4cc(-c5c(OC)cc(OC)cc5OC)no4)CCC(C)(C)[C@@H]3[C@H](O)[C@H](OC(C)=O)[C@@]2(C)O1
[1]
  IC50: > 100 µM
[2]
  IC50: 0.5 µM

## COc1ccc(C2=NOC([C@@]3(C)CC(=O)[C@]4(O)[C@@]5(C)[C@@H](OCc6cc(-c7ccc(OC)c(OC)c7)no6)CCC(C)(C)[C@@H]5[C@H](OC(C)=O)[C@H](O)[C@@]4(C)O3)C2)cc1OC (stereo partly specified)
[1]
  IC50: > 100 µM
[2]
  IC50: 0.5 µM

## CC[C@@]1(C)CC(=O)[C@]2(O)[C@@]3(C)[C@@H](OCc4cc(-c5cc(OC)c(OC)c(OC)c5)no4)CCC(C)(C)[C@@H]3[C@H](O)[C@H](OC(C)=O)[C@@]2(C)O1
[1]
  IC50: 29.3 µM
[2]
  IC50: 0.5 µM

## C=C[C@@]1(C)CC(=O)[C@]2(O)[C@@]3(C)[C@@H](O)CCC(C)(C)[C@@H]3[C@H](O)[C@H](OC(C)=O)[C@@]2(C)O1 [COLFORSIN]
[1]
  IC50: > 100 µM
[3]
  Activity: Active
[2]
  IC50: 63.3 µM

## C=C[C@@]1(C)CC(=O)[C@]2(O)[C@@]3(C)[C@@H](OCc4cc(-c5ccc(OC)c(OC)c5)no4)CCC(C)(C)[C@@H]3[C@H](OC(C)=O)[C@H](O)[C@@]2(C)O1
[1]
  IC50: 28.3 µM
[2]
  IC50: 12 µM

## C=C[C@@]1(C)CC(=O)[C@]2(O)[C@@]3(C)[C@@H](OCc4cc(-c5ccc(OC)cc5)no4)CCC(C)(C)[C@@H]3[C@H](OC(C)=O)[C@H](O)[C@@]2(C)O1
[1]
  IC50: > 100 µM
[2]
  IC50: 57.3 µM

## C=C[C@@]1(C)CC(=O)[C@]2(O)[C@@]3(C)[C@@H](OCc4cc(-c5ccc(OCc6ccccc6)cc5)no4)CCC(C)(C)[C@@H]3[C@H](OC(C)=O)[C@H](O)[C@@]2(C)O1
[1]
  IC50: > 100 µM
[2]
  IC50: 84.6 µM

## COc1ccc(C2=NOC([C@@]3(C)CC(=O)[C@]4(O)[C@@]5(C)[C@@H](OCc6cc(-c7ccc(OC)c(OC)c7)no6)CCC(C)(C)[C@@H]5[C@H](O)[C@H](OC(C)=O)[C@@]4(C)O3)C2)cc1OC (stereo partly specified)
[1]
  IC50: > 100 µM
[2]
  IC50: 0.5 µM

## CC[C@@]1(C)CC(=O)[C@]2(O)[C@@]3(C)[C@@H](OCc4cc(-c5ccc(OC)c(OC)c5)no4)CCC(C)(C)[C@@H]3[C@H](O)[C@H](OC(C)=O)[C@@]2(C)O1
[1]
  IC50: > 100 µM
[2]
  IC50: 9.6 µM

## C=C[C@@]1(C)CC(=O)[C@]2(O)[C@@]3(C)[C@@H](OCc4cc(-c5c(OC)cc(OC)cc5OC)no4)CCC(C)(C)[C@@H]3[C@H](OC(C)=O)[C@H](O)[C@@]2(C)O1
[1]
  IC50: > 100 µM
[2]
  IC50: 0.5 µM

## CC(=O)O[C@H]1[C@@H](O)[C@H]2C(C)(C)CC[C@H](OCc3cc(-c4ccccc4)no3)[C@]2(C)[C@@]2(O)C(=O)C[C@](C)(C3CC(c4ccccc4)=NO3)O[C@]12C (stereo partly specified)
[1]
  IC50: > 100 µM
[2]
  IC50: 35.3 µM

## C#CCO[C@H]1CCC(C)(C)[C@@H]2[C@H](OC(C)=O)[C@H](O)[C@@]3(C)O[C@@](C)(C=C)CC(=O)[C@]3(O)[C@@]12C
[1]
  IC50: > 100 µM
[2]
  IC50: 30 µM

## C=C[C@@]1(C)CC(=O)[C@]2(O)[C@@]3(C)[C@@H](OCc4cc(-c5ccc(Cl)cc5)no4)CCC(C)(C)[C@@H]3[C@H](O)[C@H](OC(C)=O)[C@@]2(C)O1
[1]
  IC50: > 100 µM
[2]
  IC50: 5.6 µM

## C=C[C@@]1(C)CC(=O)[C@]2(O)[C@@]3(C)[C@@H](OCc4cc(-c5ccc(OC)c(OC)c5)no4)CCC(C)(C)[C@@H]3[C@H](O)[C@H](OC(C)=O)[C@@]2(C)O1
[1]
  IC50: > 100 µM
[2]
  IC50: 1.1 µM

## COc1ccc(C2=NOC([C@@]3(C)CC(=O)[C@]4(O)[C@@]5(C)[C@@H](OCc6cc(-c7ccc(OC)cc7)no6)CCC(C)(C)[C@@H]5[C@H](O)[C@H](OC(C)=O)[C@@]4(C)O3)C2)cc1 (stereo partly specified)
[1]
  IC50: 4.3 µM
[2]
  IC50: 3 µM

## C=C[C@@]1(C)CC(=O)[C@]2(O)[C@@]3(C)[C@@H](OCc4cc(-c5ccc(Cl)cc5)no4)CCC(C)(C)[C@@H]3[C@H](OC(C)=O)[C@H](O)[C@@]2(C)O1
[1]
  IC50: > 100 µM
[2]
  IC50: 4 µM

## C=C[C@@]1(C)CC(=O)[C@]2(O)[C@@]3(C)[C@@H](OCc4cc(-c5ccc(OCc6ccccc6)cc5)no4)CCC(C)(C)[C@@H]3[C@H](O)[C@H](OC(C)=O)[C@@]2(C)O1
[1]
  IC50: 0.5 µM
[3]
  Activity: Active
[2]
  IC50: 0.5 µM

## C=C[C@@]1(C)CC(=O)[C@]2(O)[C@@]3(C)[C@@H](OCc4cc(-c5ccc(C)cc5)no4)CCC(C)(C)[C@@H]3[C@H](OC(C)=O)[C@H](O)[C@@]2(C)O1
[1]
  IC50: > 100 µM
[2]
  IC50: 32 µM

## CC(=O)O[C@H]1[C@H]2C(C)(C)CC[C@H](OCc3cc(-c4ccc(OCc5ccccc5)cc4)no3)[C@]2(C)[C@@]2(O)C(=O)C[C@](C)(C3CC(c4ccc(OCc5ccccc5)cc4)=NO3)O[C@]2(C)[C@H]1O (stereo partly specified)
[1]
  IC50: 1.3 µM
[2]
  IC50: 3.3 µM

## C=C[C@@]1(C)CC(=O)[C@]2(O)[C@@]3(C)[C@@H](OCc4cc(-c5ccc(C)cc5)no4)CCC(C)(C)[C@@H]3[C@H](O)[C@H](OC(C)=O)[C@@]2(C)O1
[1]
  IC50: 75 µM
[2]
  IC50: 7 µM

## CC[C@@]1(C)CC(=O)[C@]2(O)[C@@]3(C)[C@@H](OCc4cc(-c5ccc(OC)cc5)no4)CCC(C)(C)[C@@H]3[C@H](O)[C@H](OC(C)=O)[C@@]2(C)O1
[1]
  IC50: 2.1 µM
[3]
  Activity: Active
[2]
  IC50: 0.5 µM

## C=C[C@@]1(C)CC(=O)[C@]2(O)[C@@]3(C)[C@@H](OCc4cc(-c5cc(OC)c(OC)c(OC)c5)no4)CCC(C)(C)[C@@H]3[C@H](OC(C)=O)[C@H](O)[C@@]2(C)O1
[1]
  IC50: > 100 µM
[2]
  IC50: 4.4 µM

## C=C[C@@]1(C)CC(=O)[C@]2(O)[C@@]3(C)[C@@H](OCc4cc(-c5ccccc5)no4)CCC(C)(C)[C@@H]3[C@H](O)[C@H](OC(C)=O)[C@@]2(C)O1
[1]
  IC50: 5 µM
[3]
  Activity: Active
[2]
  IC50: 0.5 µM

## CC(=O)O[C@H]1[C@@H](O)[C@H]2C(C)(C)CC[C@H](OCc3cc(-c4ccc(OCc5ccccc5)cc4)no3)[C@]2(C)[C@@]2(O)C(=O)C[C@](C)(C3CC(c4ccc(OCc5ccccc5)cc4)=NO3)O[C@]12C (stereo partly specified)
[1]
  IC50: 79.6 µM
[2]
  IC50: 52.6 µM

## C=C[C@@]1(C)CC(=O)[C@]2(O)[C@@]3(C)[C@@H](OCc4cc(-c5ccc(OC)cc5)no4)CCC(C)(C)[C@@H]3[C@H](O)[C@H](OC(C)=O)[C@@]2(C)O1
[1]
  IC50: 4 µM
[3]
  Activity: Active
[2]
  IC50: 0.5 µM

## CC[C@@]1(C)CC(=O)[C@]2(O)[C@@]3(C)[C@@H](OCc4cc(-c5ccc(Cl)cc5)no4)CCC(C)(C)[C@@H]3[C@H](O)[C@H](OC(C)=O)[C@@]2(C)O1
[1]
  IC50: 7 µM
[2]
  IC50: 1.6 µM

## CC(=O)O[C@H]1[C@H]2C(C)(C)CC[C@H](OCc3cc(-c4ccc(C)cc4)no3)[C@]2(C)[C@@]2(O)C(=O)C[C@](C)(C3CC(c4ccc(C)cc4)=NO3)O[C@]2(C)[C@H]1O (stereo partly specified)
[1]
  IC50: > 100 µM
[2]
  IC50: 59 µM

## C#CCO[C@H]1CCC(C)(C)[C@@H]2[C@H](O)[C@H](OC(C)=O)[C@@]3(C)O[C@@](C)(C=C)CC(=O)[C@]3(O)[C@@]12C
[1]
  IC50: > 100 µM
[2]
  IC50: > 100 µM

Source: ChEMBL document CHEMBL4219035, “Synthesis of novel forskolin isoxazole derivatives with potent anti-cancer activity against breast cancer cell lines” (Bioorg Med Chem Lett, 2017)
